Assays:
human ADAMTS-5 = human ADAMTS-5 (Homo sapiens (Human), UniProt Q9UNA0); details: read-out: hADAMTS-5 potency IC50
Method: Finally, the fluorescence is read on the Envision (Perkin Elmer) after an incubation of 90 min at 37° C.

human TACE = human TACE (Homo sapiens (Human), UniProt P78536); details: read-out: TACE potency IC50
Chain of human TACE (P78536 whole entry, looked up, change not shown): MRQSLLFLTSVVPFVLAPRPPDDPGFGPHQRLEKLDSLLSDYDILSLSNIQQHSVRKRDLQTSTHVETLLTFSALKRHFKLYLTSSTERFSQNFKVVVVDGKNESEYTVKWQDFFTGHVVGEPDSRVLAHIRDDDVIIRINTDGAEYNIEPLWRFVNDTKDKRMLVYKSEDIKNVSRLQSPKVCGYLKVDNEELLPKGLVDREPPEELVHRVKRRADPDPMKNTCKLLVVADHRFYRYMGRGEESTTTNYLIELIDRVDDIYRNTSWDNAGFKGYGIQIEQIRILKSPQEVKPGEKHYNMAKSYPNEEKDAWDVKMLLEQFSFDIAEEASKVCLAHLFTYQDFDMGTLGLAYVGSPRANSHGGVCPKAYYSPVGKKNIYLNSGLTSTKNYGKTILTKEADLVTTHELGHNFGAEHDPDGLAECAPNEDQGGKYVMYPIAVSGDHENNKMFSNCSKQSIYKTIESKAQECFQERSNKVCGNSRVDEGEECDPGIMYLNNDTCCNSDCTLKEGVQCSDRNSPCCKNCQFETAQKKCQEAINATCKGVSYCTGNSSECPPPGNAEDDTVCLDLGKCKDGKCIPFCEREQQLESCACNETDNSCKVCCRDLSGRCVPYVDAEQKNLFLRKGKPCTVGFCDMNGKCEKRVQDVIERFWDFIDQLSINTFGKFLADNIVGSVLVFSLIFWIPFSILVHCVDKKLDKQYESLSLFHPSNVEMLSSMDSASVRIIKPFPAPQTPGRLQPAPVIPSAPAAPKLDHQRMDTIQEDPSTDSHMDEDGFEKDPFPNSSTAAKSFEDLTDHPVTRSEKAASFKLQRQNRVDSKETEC

Chain of human ADAMTS-5 (Q9UNA0 262-930): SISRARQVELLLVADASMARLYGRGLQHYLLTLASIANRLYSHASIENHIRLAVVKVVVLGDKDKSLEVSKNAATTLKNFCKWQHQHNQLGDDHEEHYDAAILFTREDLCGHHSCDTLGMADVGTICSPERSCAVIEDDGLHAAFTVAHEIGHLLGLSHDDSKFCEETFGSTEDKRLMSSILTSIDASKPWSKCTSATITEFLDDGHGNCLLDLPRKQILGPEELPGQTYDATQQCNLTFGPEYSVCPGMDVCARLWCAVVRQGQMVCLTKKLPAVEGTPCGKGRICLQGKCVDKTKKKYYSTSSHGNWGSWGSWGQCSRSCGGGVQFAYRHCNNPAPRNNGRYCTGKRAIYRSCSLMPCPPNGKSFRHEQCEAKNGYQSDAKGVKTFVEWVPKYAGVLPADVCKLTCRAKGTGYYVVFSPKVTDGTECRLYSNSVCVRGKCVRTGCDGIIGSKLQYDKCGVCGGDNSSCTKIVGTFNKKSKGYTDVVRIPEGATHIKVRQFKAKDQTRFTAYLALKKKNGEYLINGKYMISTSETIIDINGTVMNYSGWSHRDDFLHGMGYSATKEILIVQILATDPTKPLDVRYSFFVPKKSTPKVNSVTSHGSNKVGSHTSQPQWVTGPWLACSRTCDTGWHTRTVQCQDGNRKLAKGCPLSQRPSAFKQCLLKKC

Cc1ccc(C2(CCC(=O)N3CCN(c4cc(Cl)cc(Cl)c4)[C@@H](C)C3)NC(=O)NC2=O)cn1 (stereo partly drawn) [compound 384, 5-[3-[(3S)-4-(3,5-dichlorophenyl)-3-methyl-piperazin-1-yl]-3-oxo-propyl]-5-(6-methyl-3-pyridyl)imidazolidine-2,4-dione]
IC50 (human ADAMTS-5): 60 nM
IC50 (human TACE): 2230 nM

Cc1ccc(C2(CCC(=O)N3CCN(c4cccc(F)c4)[C@@H](C)C3)NC(=O)NC2=O)cn1 (stereo partly drawn) [compound 385, 5-[3-[(3S)-4-(3-fluorophenyl)-3-methyl-piperazin-1-yl]-3-oxo-propyl]-5-(6-methyl-3-pyridyl)imidazolidine-2,4-dione]
IC50 (human ADAMTS-5): 71 nM
IC50 (human TACE): > 4000 nM

Cc1ccc(C2(CCC(=O)N3CCN(c4cc(F)cc(F)c4)[C@@H](C)C3)NC(=O)NC2=O)cn1 (stereo partly drawn) [compound 386, 5-[3-[(3S)-4-(3,5-difluorophenyl)-3-methyl-piperazin-1-yl]-3-oxo-propyl]-5-(6-methyl-3-pyridyl)imidazolidine-2,4-dione]
IC50 (human ADAMTS-5): 48 nM
IC50 (human TACE): > 4000 nM

Cc1cc(C2(CCC(=O)N3CCN(c4cc(F)cc(F)c4)[C@@H](C)C3)NC(=O)NC2=O)no1 (stereo partly drawn) [compound 387, 5-[3-[(3S)-4-(3,5-difluorophenyl)-3-methyl-piperazin-1-yl]-3-oxo-propyl]-5-(5-methylisoxazol-3-yl)imidazolidine-2,4-dione]
IC50 (human ADAMTS-5): 37 nM
IC50 (human TACE): > 4000 nM

CNc1cc(N2CCN(C(=O)CC[C@@]3(C)NC(=O)NC3=O)C[C@@H]2C)ccc1Cl [compound 392, (5R)-5-[3-[(3S)-4-[4-chloro-3-(methylamino)phenyl]-3-methyl-piperazin-1-yl]-3-oxo-propyl]-5-methyl-imidazolidine-2,4-dione]
IC50 (human ADAMTS-5): 567 nM
IC50 (human TACE): > 20000 nM

C[C@H]1CN(C(=O)CCC2(c3ccn(C)n3)NC(=O)NC2=O)CCN1c1cc(F)cc(F)c1 (stereo partly drawn) [compound 394, 5-[3-[(3S)-4-(3,5-difluorophenyl)-3-methyl-piperazin-1-yl]-3-oxo-propyl]-5-(1-methylpyrazol-3-yl)imidazolidine-2,4-dione]
IC50 (human ADAMTS-5): 49 nM
IC50 (human TACE): > 20000 nM

Cc1nc(C2(CCC(=O)N3CCN(c4cc(F)cc(F)c4)[C@@H](C)C3)NC(=O)NC2=O)co1 (stereo partly drawn) [compound 395, 5-[3-[(3S)-4-(3,5-difluorophenyl)-3-methyl-piperazin-1-yl]-3-oxo-propyl]-5-(2-methyloxazol-4-yl)imidazolidine-2,4-dione]
IC50 (human ADAMTS-5): 39 nM
IC50 (human TACE): > 20000 nM

Cc1cc(N2CCN(C(=O)CC[C@@]3(C)NC(=O)NC3=O)C[C@@H]2C)cc(C)c1Cl [compound 400, (5R)-5-[3-[(3S)-4-(4-chloro-3,5-dimethyl-phenyl)-3-methyl-piperazin-1-yl]-3-oxo-propyl]-5-methyl-imidazolidine-2,4-dione]
IC50 (human ADAMTS-5): 383 nM
IC50 (human TACE): 2930 nM

CC(CC1NC(=O)NC1=O)C(=O)N1CCN(c2ccc(F)c(Cl)c2)[C@@H](C)C1 (stereo partly drawn) [compound 441, 5-(3-((S)-4-(3-chloro-4-fluorophenyl)-3-methylpiperazin-1-yl)-2-methyl-3-oxopropyl)imidazolidine-2,4-dione]
IC50 (human ADAMTS-5): 59 nM
IC50 (human TACE): > 20000 nM

CC(CC1(c2ccccn2)NC(=O)NC1=O)C(=O)N1CCN(c2cc(Cl)cc(Cl)c2)[C@@H](C)C1 (stereo partly drawn) [compound 442, 5-(3-((S)-4-(3,5-dichlorophenyl)-3-methylpiperazin-1-yl)-2-methyl-3-oxopropyl)-5-(pyridin-2-yl)imidazolidine-2,4-dione]
IC50 (human ADAMTS-5): 24 nM
IC50 (human TACE): 789 nM

CCC1(CC(C)C(=O)N2CCN(c3ccc(F)c(Cl)c3)[C@@H](C)C2)NC(=O)NC1=O (stereo partly drawn) [compound 444, 5-(3-((S)-4-(3-chloro-4-fluorophenyl)-3-methylpiperazin-1-yl)-2-methyl-3-oxopropyl)-5-ethylimidazolidine-2,4-dione]
IC50 (human ADAMTS-5): 25 nM
IC50 (human TACE): > 4000 nM

CC(CC1(c2ccccn2)NC(=O)NC1=O)C(=O)N1CCN(c2cccc(Cl)c2)[C@@H](C)C1 (stereo partly drawn) [compound 446, 5-(3-((S)-4-(3-chlorophenyl)-3-methylpiperazin-1-yl)-2-methyl-3-oxopropyl)-5-(pyridin-2-yl)imidazolidine-2,4-dione]
IC50 (human ADAMTS-5): 19 nM
IC50 (human TACE): 840 nM

Cc1cccc(C2(CCC(=O)N3CCN(c4ccc(F)c(Cl)c4)[C@@H](C)C3)NC(=O)NC2=O)n1 (stereo partly drawn) [compound 447, 5-[3-[(3S)-4-(3-chloro-4-fluoro-phenyl)-3-methyl-piperazin-1-yl]-3-oxo-propyl]-5-(6-methyl-2-pyridyl)imidazolidine-2,4-dione]
IC50 (human ADAMTS-5): 56 nM
IC50 (human TACE): 3620 nM

COCC1(CC(C)C(=O)N2CCN(c3cc(F)c(Cl)c(F)c3)CC2)NC(=O)NC1=O (stereo not drawn) [compound 448]
IC50 (human ADAMTS-5): 19 nM
IC50 (human TACE): 2990 nM

COC(CC1(C)NC(=O)NC1=O)C(=O)N1CCN(c2ccc(F)c(Cl)c2)[C@@H](C)C1 (stereo partly drawn) [compound 450, 5-(3-((S)-4-(3-chloro-4-fluorophenyl)-3-methylpiperazin-1-yl)-2-methoxy-3-oxopropyl)-5-methylimidazolidine-2,4-dione]
IC50 (human ADAMTS-5): 58 nM
IC50 (human TACE): > 20000 nM

C[C@H]1CN(C(=O)CCC2(c3cccnc3)NC(=O)NC2=O)CCN1c1ccc(Cl)c(Cl)c1 (stereo partly drawn) [compound 453, 5-[3-[(3S)-4-(3,4-dichlorophenyl)-3-methyl-piperazin-1-yl]-3-oxo-propyl]-5-(3-pyridyl)imidazolidine-2,4-dione]
IC50 (human ADAMTS-5): 36 nM
IC50 (human TACE): 3180 nM

Cc1cccc(C2(CCC(=O)N3CCN(c4ccc(Cl)c(F)c4)[C@@H](C)C3)NC(=O)NC2=O)n1 (stereo partly drawn) [compound 454, 5-[3-[(3S)-4-(4-chloro-3-fluoro-phenyl)-3-methyl-piperazin-1-yl]-3-oxo-propyl]-5-(6-methyl-2-pyridyl)imidazolidine-2,4-dione]
IC50 (human ADAMTS-5): 35 nM
IC50 (human TACE): 2980 nM

Cc1cc(N2CCN(C(=O)C(C)CC3(C4CC4)NC(=O)NC3=O)C[C@@H]2C)ccc1F (stereo partly drawn) [compound 456, 5-cyclopropyl-5-(3-((S)-4-(4-fluoro-3-methylphenyl)-3-methylpiperazin-1-yl)-2-methyl-3-oxopropyl)imidazolidine-2,4-dione]
IC50 (human ADAMTS-5): 27 nM
IC50 (human TACE): > 4000 nM

C[C@H]1CN(C(=O)CCC2(c3ccccn3)NC(=O)NC2=O)CCN1c1ccc(Cl)c(Cl)c1 (stereo partly drawn) [compound 458, 5-[3-[(3S)-4-(3,4-dichlorophenyl)-3-methyl-piperazin-1-yl]-3-oxo-propyl]-5-(2-pyridyl)imidazolidine-2,4-dione]
IC50 (human ADAMTS-5): 21 nM
IC50 (human TACE): 2380 nM

C[C@H]1CN(C(=O)CCC2(c3ccccn3)NC(=O)NC2=O)CCN1c1cc(Cl)cc(Cl)c1 (stereo partly drawn) [compound 459, 5-[3-[(3S)-4-(3,5-dichlorophenyl)-3-methyl-piperazin-1-yl]-3-oxo-propyl]-5-(2-pyridyl)imidazolidine-2,4-dione]
IC50 (human ADAMTS-5): 46 nM
IC50 (human TACE): 1740 nM

C[C@H]1CN(C(=O)CCC2(c3cnccn3)NC(=O)NC2=O)CCN1c1ccc(Cl)c(Cl)c1 (stereo partly drawn) [compound 460, 5-[3-[(3S)-4-(3,4-dichlorophenyl)-3-methyl-piperazin-1-yl]-3-oxo-propyl]-5-pyrazin-2-yl-imidazolidine-2,4-dione]
IC50 (human ADAMTS-5): 30 nM
IC50 (human TACE): > 4000 nM

C[C@H]1CN(C(=O)CCC2(c3cnccn3)NC(=O)NC2=O)CCN1c1cc(Cl)cc(Cl)c1 (stereo partly drawn) [compound 461, 5-[3-[(3S)-4-(3,5-dichlorophenyl)-3-methyl-piperazin-1-yl]-3-oxo-propyl]-5-pyrazin-2-yl-imidazolidine-2,4-dione]
IC50 (human ADAMTS-5): 39 nM
IC50 (human TACE): 2540 nM

C[C@H]1CN(C(=O)CCC2(c3ncccn3)NC(=O)NC2=O)CCN1c1ccc(Cl)c(Cl)c1 (stereo partly drawn) [compound 462, 5-[3-[(3S)-4-(3,4-dichlorophenyl)-3-methyl-piperazin-1-yl]-3-oxo-propyl]-5-pyrimidin-2-yl-imidazolidine-2,4-dione]
IC50 (human ADAMTS-5): 22 nM
IC50 (human TACE): > 4000 nM

C[C@H]1CN(C(=O)CCC2(c3ncccn3)NC(=O)NC2=O)CCN1c1cc(F)cc(Cl)c1 (stereo partly drawn) [compound 463, 5-[3-[(3S)-4-(3-chloro-5-fluoro-phenyl)-3-methyl-piperazin-1-yl]-3-oxo-propyl]-5-pyrimidin-2-yl-imidazolidine-2,4-dione]
IC50 (human ADAMTS-5): 46 nM
IC50 (human TACE): > 4000 nM

Cc1ccc(C2(CCC(=O)N3CCN(c4ccc(Cl)c(Cl)c4)[C@@H](C)C3)NC(=O)NC2=O)cn1 (stereo partly drawn) [compound 464, 5-[3-[(3S)-4-(3,4-dichlorophenyl)-3-methyl-piperazin-1-yl]-3-oxo-propyl]-5-(6-methyl-3-pyridyl)imidazolidine-2,4-dione]
IC50 (human ADAMTS-5): 26 nM
IC50 (human TACE): > 4000 nM

C[C@H]1CN(C(=O)CCC2(c3cocn3)NC(=O)NC2=O)CCN1c1cc(Cl)cc(Cl)c1 (stereo partly drawn) [compound 465, 5-[3-[(3S)-4-(3,5-dichlorophenyl)-3-methyl-piperazin-1-yl]-3-oxo-propyl]-5-oxazol-4-yl-imidazolidine-2,4-dione]
IC50 (human ADAMTS-5): 62 nM
IC50 (human TACE): 3500 nM

C[C@H]1CN(C(=O)CCC2(c3cn(C)cn3)NC(=O)NC2=O)CCN1c1cc(Cl)cc(Cl)c1 (stereo partly drawn) [compound 466, 5-[3-[(3S)-4-(3,5-dichlorophenyl)-3-methyl-piperazin-1-yl]-3-oxo-propyl]-5-(1-methylimidazol-4-yl)imidazolidine-2,4-dione]
IC50 (human ADAMTS-5): 55 nM
IC50 (human TACE): 2640 nM

C[C@H]1CN(C(=O)CCC2(c3cn(C)cn3)NC(=O)NC2=O)CCN1c1ccc(F)c(Cl)c1 (stereo partly drawn) [compound 467, 5-[3-[(3S)-4-(3-chloro-4-fluoro-phenyl)-3-methyl-piperazin-1-yl]-3-oxo-propyl]-5-(1-methylimidazol-4-yl)imidazolidine-2,4-dione]
IC50 (human ADAMTS-5): 42 nM
IC50 (human TACE): > 4000 nM

Cc1cc(N2CCN(C(=O)CC[C@@]3(C)NC(=O)NC3=O)C[C@@H]2C)cc(C)c1Cl [compound 470, (5R)-5-[3-[(3S)-4-(4-chloro-3,5-dimethyl-phenyl)-3-methyl-piperazin-1-yl]-3-oxo-propyl]-5-methyl-imidazolidine-2,4-dione]
IC50 (human ADAMTS-5): 383 nM
IC50 (human TACE): 2930 nM

C[C@H]1CN(C(=O)CC[C@@]2(C)NC(=O)NC2=O)CCN1c1ccc(Cl)c(C(F)(F)F)c1 [compound 472, (5R)-5-[3-[(3S)-4-[4-chloro-3-(trifluoromethyl)phenyl]-3-methyl-piperazin-1-yl]-3-oxo-propyl]-5-methyl-imidazolidine-2,4-dione]
IC50 (human ADAMTS-5): 899 nM
IC50 (human TACE): > 4000 nM
